Experiments:
[1] = absolute recovery over vacuum-assisted evaporative concentration; higher = better recovery; settings: enrichment method: VEC
In short: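 Absolute recovery was calculated as (response ratio pre − unspiked)/(post − unspiked) × 100 from averages of ≥ 2 replicates. Influent (6 mL), effluent (15 mL), and surface and nanopure water (60 mL) samples were spiked with standards before concentration, after concentration, or not at all, at 200 ng/L for nanopure and surface water or 1000 ng/L for wastewater, with class- and compound-specific adjustments. Samples were evaporated at 55 °C and 20 mbar to about 0.3 mL, made up to 0.4 mL and centrifuged, then internal standards were added before LC-HRMS/MS analysis.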

[2] = absolute recovery over mixed-bed multilayer solid-phase extraction; higher = better recovery; settings: enrichment method: SPE
In short: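 Absolute recovery rests on background-corrected response ratios of pre- versus post-spiked samples, averaged over at least two replicates. Wastewater (100–250 mL, pH 6.5, glass-fibre filtered) was spiked at 1000 ng/L and unfiltered nanopure water (1000 mL) at 200 ng/L, before or after three-layer mixed-bed cartridge extraction or not at all, with exceptions for some classes. Analysis after internal standard addition used liquid chromatography with high-resolution tandem mass spectrometry in both ionisation modes.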

[3] = LC retention time (Atlantis T3, 5-95% MeOH gradient, 0.1% formic acid); higher = more retained / less polar
In short: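 Retention times were recorded for reference standards (purity ≥ 95%) on a polar reversed-phase C18 column (Atlantis T3, 3 × 150 mm, 3 μm) at 0.3 mL/min. Elution used water and methanol, each with 0.1% formic acid, in a gradient from 5 to 95% methanol over 17.5 min. Detection was by high-resolution tandem mass spectrometry on a QExactive Plus, with positive and negative electrospray in separate runs. Peaks were found and integrated in TraceFinder (5 ppm tolerance, at least three points per peak) and then checked by hand.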

Structure (SMILES)	absolute recovery ([1]; wastewater effluent) [%]	absolute recovery ([1]; wastewater influent) [%]	absolute recovery ([2]; nanopure water) [%]	absolute recovery ([2]; surface water) [%]	absolute recovery ([2]; wastewater effluent) [%]	LC retention time [3] [min]	absolute recovery ([2]; wastewater influent) [%]
N#Cc1c(Cl)c(Cl)c([O-])c(C(=[NH2+])[O-])c1Cl	109	105	101	99.6	94.8	16.8	
CC(C)CC(C[NH3+])CC(=O)[O-] (racemic) [Pregabalin-rac]	108	101	16.3	2	2.6	10.3	
CN1CCN(C)C1=O [1-3-Dimethyl-2-imidazolidinon]	96.5	104	26	29.7	29.2	10.1	56.1
O=C([O-])C[NH+](CCC[NH+](CC(=O)[O-])CC(=O)[O-])CC(=O)[O-] [1-3-Propylene-diaminotetraacetic-acid]	85.1	117				3.58	
Clc1cccc(N2CC[NH2+]CC2)c1 [1-(3-Chlorophenyl)-piperazine]	103	99.6	70.3	74.7	68.1	12.6	79.3
FC(F)(F)c1cccc(N2CC[NH2+]CC2)c1 [1-(3-Trifluoromethylphenyl)-piperazine]	97.4	93	66	71.9	66.4	13.6	69.9
c1ccc(CN2CC[NH2+]CC2)cc1 [1-Benzylpiperazin]	109	140	58.2	60.9	56.2	6.45	72.5
[O-]n1nnc2ccccc21 [1-Hydroxybenzotriazole H]	126	73	99.2	45.5	60.4	11.6	67.3
Cn1nnc2ccccc21 [1-Methyl-Benzotriazol]	83.9	82.1	89.4	93.1	88.8	14	103
CCCS(=O)(=O)[O-] [1-Propanesulfonate]	107	102	4.8	0.3	0.9	6.6	1.7
Clc1ccc(C(c2ccccc2)N2CC[NH2+]CC2)cc1 (stereo not drawn) [1-[(4-Chlorophenyl)phenylmethyl]piperazine]	86.4	116	82.7	84.1	85.4	16.2	122
O=c1ccn(C2OC(CO)C(O)C2(F)F)c(=O)[nH]1 (stereo not drawn) [2-2-Difluorodeoxyuridin]	122	88.2	88.2		95.1	9.37	
CC(=O)OC1C(C)OC(n2cc(F)c(N)nc2=O)C1OC(C)=O (stereo not drawn) [2-3-di-O-acetyl-5-deoxy-5-fluorocytidin]	101	91.8	102	100	92.7	13.9	84.6
O=C([O-])COc1ccc(Cl)cc1Cl [2-4-D]	103	106	95.6	94	93.5	19.3	91.2
Cc1ccc(NC=O)c(C)c1 [2-4-dimethylphenylformamid]	108	132	107	101	99.8	16.5	96.3
NC(=O)c1c(Cl)cccc1Cl [2-6-Dichlorbenzamid]	102	107	93.7	94.9	93.8	12.7	93.9
O=S(=O)([O-])c1ccc2ccc(S(=O)(=O)[O-])cc2c1 [2-7-Naphthalenedisulfonic-acid]	108	112	93.9	77.6	77.2	8.38	88.8
C[NH+](C)C(C)(C)CO [2-(Dimethylamino)-2-methyl-1-propanol]	108		45.5	7.1	10.1	3.5	
COc1nc(C)nc(N)n1 [2-Amino-4-methoxy-6-methyl-1-3-5-triazin]	101	106	102	112	102	9.03	102

Reference: the supplement of paper PMC6470124
